Test system: Pyrenophora teres
Experiment: In vivo test on Pyrenophora teres (barley net blotch)
Conditions: dose of 110 ppm; barley plants (Express variety), preventive spray 24 hours before contamination; grading 12 days after contamination
Experimental: The active ingredients tested are prepared by homogenization in a mixture of acetone/tween/DMSO, then diluted with water to obtain the desired active material concentration.
Barley plants (Express variety), sown on a 50/50 peat soil-pozzolana substrate in starter cups and grown at 12° C., are treated at the 1-leaf stage (10 cm tall) by spraying with the active ingredient prepared as described above. Plants, used as controls, are treated with the mixture of acetone/tween/DMSO/water not containing the active material.
After 24 hours, the plants are contaminated by spraying them with an aqueous suspension of Pyrenophora teres spores (12,000 spores per ml). The spores are collected from a 12-day-old culture. The contaminated barley plants are incubated for 24 hours at about 20° C. and at 100% relative humidity, and then for 12 days at 80% relative humidity.
Grading is carried out 12 days after the contamination, in comparison with the control plants.

O=C(NCCCCc1ncc(C(F)(F)F)cc1Cl)c1ccccc1C(F)(F)F [Compound 1]
efficacy (grading in comparison with the control plants): at least 60%
